For 60 compounds, RP-LC retention time results are on record in the METLIN SMRT retention time set (Domingo-Almenara et al. 2019).

Molecules are shown by their SMILES.

A short description of this data set: gradient 5% acetonitrile 3 min, to 50% in 2 min, to 85% in 15 min, held 3 min, 100 µL/min. The following applies: column: Zorbax Extend-C18 2.1 x 50 mm; eluents: water / acetonitrile, 0.1% formic acid. In a few lines:
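A Zorbax Extend-C18 column (2.1 × 50 mm, 1.8 μm) run at 100 μL/min with water and acetonitrile, both containing 0.1% formic acid, separated mixtures of ~100 pure standards. The HPLC was coupled to a quadrupole time-of-flight mass spectrometer operated in positive and negative ionization mode, with dead and dwell volumes of 40 μL and 900 μL. Each retention time was taken from a computationally picked adduct peak that was then manually inspected.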
Regarding `Cc1ccc(-c2noc(CN3C(=O)COc4ccc(C(C)(C)C)cc43)n2)cc1C`, the RP-LC retention time was found to be 1390 s.

`CC(C)(C)CC(C)(C)NC(=O)C1CCN(C(=O)c2ccccc2F)CC1` returned an RP-LC retention time of 920 s. The same measure for `Cc1ccccc1Nc1c(-c2cccc(Br)c2)nc2c(C)cccn12`: 849 s; for `CN(C)c1ccc(C(CNC(=O)c2ccc(Br)o2)N2CCCC2)cc1` (stereo not given): 572 s; for `Cc1ccc(N2CC(C(=O)Nc3cc(-c4ccco4)no3)CC2=O)cc1` (stereo not given): 821 s. The same measure for `O=C(c1csc(N2CCN(c3cccc(Cl)c3)CC2)n1)N1CCOCC1`: 970 s. As to `COC(=O)c1ccc2c(=O)n(CCc3ccccc3)c(N3CCN(c4ccccn4)CC3)nc2c1`, the RP-LC retention time turned out to be 756 s.

For the compound `CC(=O)N(C)CC(=O)N1CCN(c2cc(C)nc(Nc3ccc(C)cc3)n2)CC1`, the RP-LC retention time amounted to 564 s. On to `CCN(CC)C(=O)Cn1nc2nc(Nc3ccc(F)cc3)ccn2c1=O`, for which the RP-LC retention time worked out at 669 s. With `COc1ncc(C(=O)NC(C)CCc2ccccc2)cn1` (stereo not given), the RP-LC retention time was 797 s. For `Cc1ccc(C(=O)N2CCCCC2c2nncn2CC2CC2)cn1` (stereo not given) the value was 575 s; for `O=C1CCCc2cc(S(=O)(=O)N3CCC(C(=O)Nc4ccc(F)cc4)CC3)ccc2N1`, 749 s. The same measure for `CCOC(=O)N1CCN(c2cc(C(=O)O)c3cc(NC(=O)Cc4ccc(OC)cc4)ccc3n2)CC1`: 634 s; for `CCN1CCn2cc(S(=O)(=O)Nc3cc(F)cc(F)c3)cc2C1=O`: 755 s. For `CC(=O)Oc1cc(C(C)C)c(OCCN(C)C)cc1C`, the RP-LC retention time was 708 s. The same measure for `CCCCC(=O)Nc1ccc(N2CCOCC2)cc1C(=O)O`: 578 s; for `Cc1ccc(C)c(NC(=O)N2CCCC(Cn3cnc4cccnc43)C2)c1` (stereo not given): 676 s; for `Cn1cnc2c(C(=O)N3CCCC3)nn(-c3ccc(Cl)cc3)c2c1=O`: 758 s. The same measure for `CC(C)C(NC(=O)c1ccc([N+](=O)[O-])cc1)c1nc2ccccc2[nH]1` (stereo not given): 591 s. For `CCc1nn2c(CNC(=O)C3CCCO3)c(-c3ccccc3)nc2s1` (stereo not given) the value was 765 s; for `CCCOc1ccc(C2NCCc3c2[nH]c2ccccc32)cc1OC` (stereo not given), 642 s. In turn, `CCCNC(=O)C1CCCN(c2ccc(SCC(=O)NCc3ccc(C(F)(F)F)cc3)nn2)C1` (stereo not given) registered an RP-LC retention time of 700 s.

The compound `Cc1ccccc1CN1N=C(C(=O)N2CCCC2)S(=O)(=O)c2ccccc21` showed an RP-LC retention time of 869 s.

Compound `O=C(Nc1ccc(F)c(Cl)c1)N1CCc2nc(-c3ccccc3)ncc2C1` had an RP-LC retention time of 1010 s. The same measure for `COc1ccc(OC)c(-c2cn3ccn(-c4ccc(C)c(Cl)c4)c(=O)c3n2)c1`: 982 s. The compound `O=C(c1ccsc1)N1CCCCC1c1nncn1-c1ccccc1` (stereo not given) showed an RP-LC retention time of 676 s.

For the compound `CCc1ccc(NC(=O)N2CCC(n3c(-c4ccco4)nc4cccnc43)C2)cc1` (stereo not given), the RP-LC retention time was 816 s. For `COc1ccc(NC(=O)N2[C@H]3CC[C@@H]2c2cnc(C)nc2C3)cc1F` the value was 671 s; for `COc1cccc(NC(=O)N2CCCC2c2cc(C(C)C)no2)c1` (stereo not given), 855 s; for `Cc1nn(CC(=O)NCC(C)C)c(=O)c2nc(-c3ccccc3)sc12`, 830 s. The same measure for `Cc1cc(NS(=O)(=O)c2cc(-c3[nH]ncc3C(=O)N3CCCCC3)oc2C)ccc1F`: 783 s; for `COc1ccc(CC(=O)NCC(=O)Nc2nc3ccccc3[nH]2)c(Cl)c1`: 653 s; for `O=C(NCCOc1ccccc1)c1ccccc1C(=O)c1ccccc1`: 918 s. The same measure for `Cc1ccc(N2CCC(NC(=O)NC(C)C)C2=O)cc1C` (stereo not given): 740 s; for `O=C(Nc1ccc(F)cc1)C(=O)c1c[nH]c2ccccc12`: 918 s; for `COCCCNC(=O)N1CC(c2nc(C)no2)C2(CCOCC2)C1` (stereo not given): 598 s. `Cc1sc(NC(=O)c2cccnc2)nc1-c1ccc2c(c1)N(C)C(=O)CO2` registered an RP-LC retention time of 754 s. For `CCOC(=O)N1CCN(C(=O)c2ccc(S(=O)(=O)NCc3cccs3)o2)CC1` the value was 729 s. `O=C(NCc1ccc(F)cc1)C1CCN(C(=O)c2ncn3c2COC(c2ccc(F)cc2)C3)CC1` (stereo not given) yielded an RP-LC retention time of 784 s. The same measure for `CCCCN1CCN(C(=O)c2c(C)sc3ccn(CC(C)C)c(=O)c23)CC1`: 632 s; for `CC(C)CN1CCn2cc(S(=O)(=O)Nc3ccc(F)cc3Cl)cc2C1=O`: 838 s; for `CCn1cc(-c2nc(C)c(C(=O)Nc3cccc(C)c3)s2)c2cccnc21`: 971 s. For `Clc1ccc(CNc2c(-c3ccc4c(c3)OCCO4)nc3ncccn23)cc1`, the RP-LC retention time is 722 s. For `O=C(NC1CCCc2ccccc21)C1CCN(Cc2noc(-c3ccc(F)cc3)n2)CC1` (stereo not given) the value was 713 s; for `Cc1ccc(F)cc1NC(=O)CSc1ccc(N2CCCC(C(=O)NC3CC3)C2)nn1` (stereo not given), 664 s. Compound `O=C(CC1CCCC1)NCCC1CCN(C(=O)Nc2cc(F)ccc2F)CC1` yielded an RP-LC retention time of 847 s. The same measure for `CCOC(=O)C(Cc1c(C)[nH]c2ccccc12)C(=O)OCC`: 1000 s; for `Cc1sc(NC(=O)c2cccc(Cl)c2)nc1-c1ccc2c(c1)NC(=O)CO2`: 968 s.

Compound `CCOCCOC(=O)C1=C(C)NC2=C(C(=O)CC(C)(C)C2)C1c1ccccc1OC` (stereo not given) registered an RP-LC retention time of 839 s.

In turn, `COc1cccc(-c2noc(C3CC(=O)N(c4cccc(Cl)c4)C3)n2)c1OC` (stereo not given) returned an RP-LC retention time of 936 s. The same measure for `Cc1ccc(NC(=O)C2CC(=O)N(CCc3c[nH]c4ccc(Cl)cc34)C2)cc1` (stereo not given): 884 s.

In turn, `O=C(c1cccnc1)N1CCN(C(=O)c2nnn3c2COC(c2ccc(Cl)cc2)C3)CC1` (stereo not given) registered an RP-LC retention time of 692 s. For `O=C(NCCN1CCCCC1)c1cn2cc(Cl)ccc2n1` the value was 579 s; for `O=C(NCCc1c[nH]c2ccccc12)c1nn(-c2ccc(Cl)cc2)nc1CO`, 1020 s. For `COc1ccc(OC)c(S(=O)(=O)N2CCCC(C(=O)NCCc3ccccc3)C2)c1` (stereo not given) the value was 854 s; for `CCC(=O)N1CCc2cc(-c3ccc(C(=O)N4CCC(C(N)=O)CC4)cc3)ccc21`, 667 s; for `CC(C)c1cc(C(=O)Nc2ccc(Cl)cc2F)no1`, 1140 s.

Turning to `O=C(CNc1ccccc1)Nc1nc(-c2ccccc2)cs1`, the RP-LC retention time turned out to be 637 s. For `O=C(CC1CSc2ccccc2NC1=O)NC1CCCCCC1` (stereo not given) the value was 822 s; for `CCCN(C(=O)Cc1ccc(OC)c(OC)c1)c1nc(-c2ccc(C)cc2)cs1`, 1310 s.
